# Numbers after ± are expanded uncertainties.
# Settings: 313.15 K, Liquid, Vibrating tube method
compound,measurement,setting,value
"FC(C(F)(F)F)C(F)(F)F [1,1,1,2,3,3,3-heptafluoropropane]",mass density,6459 kPa,1373.4 ± 1.5 kg/m3
same,mass density,6490 kPa,1373.6 ± 1.5 kg/m3
same,mass density,6518 kPa,1373.8 ± 1.5 kg/m3
same,mass density,6545 kPa,1374 ± 1.5 kg/m3
same,mass density,6574 kPa,1374.3 ± 1.5 kg/m3
same,mass density,6602 kPa,1374.5 ± 1.5 kg/m3
same,mass density,6638 kPa,1374.7 ± 1.5 kg/m3
same,mass density,6666 kPa,1374.8 ± 1.5 kg/m3
same,mass density,6694 kPa,1375.2 ± 1.5 kg/m3
same,mass density,6718 kPa,1375.4 ± 1.5 kg/m3
same,mass density,6751 kPa,1375.5 ± 1.5 kg/m3
same,mass density,6776 kPa,1375.7 ± 1.5 kg/m3
same,mass density,6806 kPa,1376 ± 1.5 kg/m3
same,mass density,6835 kPa,1376 ± 1.5 kg/m3
same,mass density,6863 kPa,1376.4 ± 1.5 kg/m3
same,mass density,6883 kPa,1376.7 ± 1.5 kg/m3
same,mass density,6908 kPa,1376.8 ± 1.5 kg/m3
same,mass density,6938 kPa,1376.9 ± 1.5 kg/m3
same,mass density,6976 kPa,1377.1 ± 1.5 kg/m3
same,mass density,7006 kPa,1377.4 ± 1.5 kg/m3
same,mass density,7045 kPa,1377.7 ± 1.5 kg/m3
same,mass density,7079 kPa,1377.9 ± 1.5 kg/m3
same,mass density,7109 kPa,1378.2 ± 1.5 kg/m3
same,mass density,7139 kPa,1378.3 ± 1.5 kg/m3
same,mass density,7169 kPa,1378.7 ± 1.5 kg/m3
same,mass density,7198 kPa,1378.8 ± 1.5 kg/m3
same,mass density,7228 kPa,1379 ± 1.5 kg/m3
same,mass density,7266 kPa,1379.4 ± 1.5 kg/m3
same,mass density,7292 kPa,1379.5 ± 1.5 kg/m3
same,mass density,7326 kPa,1379.7 ± 1.5 kg/m3
same,mass density,7348 kPa,1379.9 ± 1.5 kg/m3
same,mass density,7382 kPa,1380.1 ± 1.5 kg/m3
same,mass density,7408 kPa,1380.3 ± 1.5 kg/m3
same,mass density,7438 kPa,1380.5 ± 1.5 kg/m3
same,mass density,7465 kPa,1380.7 ± 1.5 kg/m3
same,mass density,7501 kPa,1380.9 ± 1.5 kg/m3
same,mass density,7527 kPa,1381.2 ± 1.5 kg/m3
same,mass density,7556 kPa,1381.4 ± 1.5 kg/m3
same,mass density,7582 kPa,1381.6 ± 1.5 kg/m3
same,mass density,7612 kPa,1381.8 ± 1.5 kg/m3
same,mass density,7638 kPa,1382.1 ± 1.5 kg/m3
same,mass density,7677 kPa,1382.3 ± 1.5 kg/m3
same,mass density,7703 kPa,1382.3 ± 1.5 kg/m3
same,mass density,7742 kPa,1382.8 ± 1.5 kg/m3
same,mass density,7768 kPa,1382.8 ± 1.5 kg/m3
same,mass density,7798 kPa,1383 ± 1.5 kg/m3
same,mass density,7824 kPa,1383.2 ± 1.5 kg/m3
same,mass density,7851 kPa,1383.5 ± 1.5 kg/m3
same,mass density,7874 kPa,1383.6 ± 1.5 kg/m3
same,mass density,7910 kPa,1383.8 ± 1.5 kg/m3
same,mass density,7931 kPa,1383.9 ± 1.5 kg/m3
same,mass density,7958 kPa,1384.2 ± 1.5 kg/m3
same,mass density,7993 kPa,1384.3 ± 1.5 kg/m3
same,mass density,8020 kPa,1384.6 ± 1.5 kg/m3
same,mass density,8059 kPa,1384.9 ± 1.5 kg/m3
same,mass density,8094 kPa,1385 ± 1.5 kg/m3
same,mass density,8129 kPa,1385.4 ± 1.5 kg/m3
same,mass density,8156 kPa,1385.5 ± 1.5 kg/m3
same,mass density,8196 kPa,1385.9 ± 1.5 kg/m3
same,mass density,8223 kPa,1386 ± 1.5 kg/m3
same,mass density,8263 kPa,1386.4 ± 1.5 kg/m3
same,mass density,8295 kPa,1386.4 ± 1.5 kg/m3
same,mass density,8331 kPa,1386.7 ± 1.5 kg/m3
same,mass density,8367 kPa,1387 ± 1.5 kg/m3
same,mass density,8399 kPa,1387.1 ± 1.5 kg/m3
same,mass density,8430 kPa,1387.3 ± 1.5 kg/m3
same,mass density,8461 kPa,1387.6 ± 1.5 kg/m3
same,mass density,8497 kPa,1387.9 ± 1.5 kg/m3
same,mass density,8523 kPa,1388.2 ± 1.5 kg/m3
same,mass density,8564 kPa,1388.3 ± 1.5 kg/m3
same,mass density,8622 kPa,1388.8 ± 1.5 kg/m3
same,mass density,8654 kPa,1388.8 ± 1.5 kg/m3
same,mass density,8689 kPa,1389.1 ± 1.5 kg/m3
same,mass density,8720 kPa,1389.4 ± 1.5 kg/m3
same,mass density,8766 kPa,1389.7 ± 1.5 kg/m3
same,mass density,8798 kPa,1390 ± 1.5 kg/m3
same,mass density,8834 kPa,1390.1 ± 1.5 kg/m3
same,mass density,8861 kPa,1390.3 ± 1.5 kg/m3
same,mass density,8887 kPa,1390.6 ± 1.5 kg/m3
same,mass density,8915 kPa,1390.6 ± 1.5 kg/m3
same,mass density,8943 kPa,1390.9 ± 1.5 kg/m3
same,mass density,8979 kPa,1391.1 ± 1.5 kg/m3
same,mass density,9019 kPa,1391.5 ± 1.5 kg/m3
same,mass density,9044 kPa,1391.5 ± 1.5 kg/m3
same,mass density,9072 kPa,1391.7 ± 1.5 kg/m3
same,mass density,9097 kPa,1391.9 ± 1.5 kg/m3
same,mass density,9130 kPa,1392.1 ± 1.5 kg/m3
same,mass density,9160 kPa,1392.2 ± 1.5 kg/m3
same,mass density,9179 kPa,1392.3 ± 1.5 kg/m3
same,mass density,9214 kPa,1392.6 ± 1.5 kg/m3
same,mass density,9236 kPa,1392.7 ± 1.5 kg/m3
same,mass density,9263 kPa,1393 ± 1.5 kg/m3
same,mass density,9286 kPa,1393.1 ± 1.5 kg/m3
same,mass density,9320 kPa,1393.4 ± 1.5 kg/m3
same,mass density,9340 kPa,1393.4 ± 1.5 kg/m3
same,mass density,9367 kPa,1393.6 ± 1.5 kg/m3
same,mass density,9393 kPa,1393.8 ± 1.5 kg/m3
same,mass density,9419 kPa,1394 ± 1.5 kg/m3
same,mass density,9443 kPa,1394 ± 1.5 kg/m3
same,mass density,9465 kPa,1394.3 ± 1.5 kg/m3
same,mass density,9495 kPa,1394.3 ± 1.5 kg/m3
same,mass density,9518 kPa,1394.6 ± 1.5 kg/m3
same,mass density,9544 kPa,1394.8 ± 1.5 kg/m3
same,mass density,9564 kPa,1394.9 ± 1.5 kg/m3
same,mass density,9591 kPa,1395 ± 1.5 kg/m3
same,mass density,9619 kPa,1395.3 ± 1.5 kg/m3
same,mass density,9823 kPa,1396.6 ± 1.5 kg/m3
same,mass density,9856 kPa,1396.8 ± 1.5 kg/m3
same,mass density,9892 kPa,1397 ± 1.5 kg/m3
same,mass density,9921 kPa,1397.3 ± 1.5 kg/m3
same,mass density,9953 kPa,1397.4 ± 1.5 kg/m3
same,mass density,9987 kPa,1397.4 ± 1.5 kg/m3
same,mass density,10010 kPa,1397.7 ± 1.5 kg/m3
same,mass density,10062 kPa,1398.1 ± 1.5 kg/m3
same,mass density,10094 kPa,1398.2 ± 1.5 kg/m3
same,mass density,10123 kPa,1398.4 ± 1.5 kg/m3
same,mass density,10151 kPa,1398.5 ± 1.5 kg/m3
same,mass density,10183 kPa,1398.9 ± 1.5 kg/m3
same,mass density,10211 kPa,1399.1 ± 1.5 kg/m3
same,mass density,10247 kPa,1399.1 ± 1.5 kg/m3
same,mass density,10272 kPa,1399.3 ± 1.5 kg/m3
same,mass density,10301 kPa,1399.5 ± 1.5 kg/m3
same,mass density,10332 kPa,1399.8 ± 1.5 kg/m3
same,mass density,10361 kPa,1400 ± 1.5 kg/m3
same,mass density,10389 kPa,1400 ± 1.5 kg/m3
same,mass density,10421 kPa,1400.3 ± 1.5 kg/m3
same,mass density,10450 kPa,1400.4 ± 1.5 kg/m3
same,mass density,10482 kPa,1400.8 ± 1.5 kg/m3
same,mass density,10519 kPa,1401 ± 1.5 kg/m3
same,mass density,10547 kPa,1401.1 ± 1.5 kg/m3
same,mass density,10580 kPa,1401.3 ± 1.5 kg/m3
same,mass density,10609 kPa,1401.5 ± 1.5 kg/m3
same,mass density,10646 kPa,1401.7 ± 1.5 kg/m3
same,mass density,10680 kPa,1401.9 ± 1.5 kg/m3
same,mass density,10709 kPa,1402.1 ± 1.5 kg/m3
same,mass density,10743 kPa,1402.3 ± 1.5 kg/m3
same,mass density,10780 kPa,1402.5 ± 1.5 kg/m3
same,mass density,10813 kPa,1402.7 ± 1.5 kg/m3
same,mass density,10838 kPa,1402.9 ± 1.5 kg/m3
same,mass density,10871 kPa,1403.1 ± 1.5 kg/m3
same,mass density,10899 kPa,1403.2 ± 1.5 kg/m3
same,mass density,10928 kPa,1403.5 ± 1.5 kg/m3
same,mass density,10956 kPa,1403.5 ± 1.5 kg/m3
same,mass density,10981 kPa,1403.7 ± 1.5 kg/m3
same,mass density,11015 kPa,1404.1 ± 1.5 kg/m3
same,mass density,11048 kPa,1404.2 ± 1.5 kg/m3
same,mass density,11069 kPa,1404.4 ± 1.5 kg/m3
same,mass density,11102 kPa,1404.4 ± 1.5 kg/m3
same,mass density,11127 kPa,1404.6 ± 1.5 kg/m3
same,mass density,11164 kPa,1404.9 ± 1.5 kg/m3
same,mass density,11193 kPa,1405 ± 1.5 kg/m3
same,mass density,11222 kPa,1405.3 ± 1.5 kg/m3
same,mass density,11252 kPa,1405.4 ± 1.5 kg/m3
same,mass density,11278 kPa,1405.5 ± 1.5 kg/m3
same,mass density,11317 kPa,1405.7 ± 1.5 kg/m3
same,mass density,11360 kPa,1405.9 ± 1.5 kg/m3
same,mass density,11399 kPa,1406.3 ± 1.5 kg/m3
same,mass density,11424 kPa,1406.4 ± 1.5 kg/m3
same,mass density,11461 kPa,1406.5 ± 1.5 kg/m3
same,mass density,11486 kPa,1406.8 ± 1.5 kg/m3
same,mass density,11518 kPa,1406.9 ± 1.5 kg/m3
same,mass density,11544 kPa,1407.2 ± 1.5 kg/m3
same,mass density,11578 kPa,1407.4 ± 1.5 kg/m3
same,mass density,11628 kPa,1407.6 ± 1.5 kg/m3
same,mass density,11692 kPa,1408 ± 1.5 kg/m3
same,mass density,11726 kPa,1408.2 ± 1.5 kg/m3
same,mass density,11751 kPa,1408.3 ± 1.5 kg/m3
same,mass density,11788 kPa,1408.5 ± 1.5 kg/m3
same,mass density,11818 kPa,1408.8 ± 1.5 kg/m3
same,mass density,11860 kPa,1408.9 ± 1.5 kg/m3
same,mass density,11889 kPa,1409.2 ± 1.5 kg/m3
same,mass density,11927 kPa,1409.3 ± 1.5 kg/m3
same,mass density,11969 kPa,1409.5 ± 1.5 kg/m3
same,mass density,11998 kPa,1409.7 ± 1.5 kg/m3
same,mass density,12023 kPa,1409.9 ± 1.5 kg/m3
same,mass density,12048 kPa,1410.1 ± 1.5 kg/m3
same,mass density,12069 kPa,1410.1 ± 1.5 kg/m3
same,mass density,12099 kPa,1410.3 ± 1.5 kg/m3
same,mass density,12128 kPa,1410.6 ± 1.5 kg/m3
same,mass density,12165 kPa,1410.9 ± 1.5 kg/m3
same,mass density,12206 kPa,1410.9 ± 1.5 kg/m3
same,mass density,12231 kPa,1411.1 ± 1.5 kg/m3
same,mass density,12265 kPa,1411.4 ± 1.5 kg/m3
same,mass density,12294 kPa,1411.4 ± 1.5 kg/m3
same,mass density,12323 kPa,1411.6 ± 1.5 kg/m3
same,mass density,12344 kPa,1411.8 ± 1.5 kg/m3
same,mass density,12373 kPa,1411.9 ± 1.5 kg/m3
same,mass density,12407 kPa,1412.1 ± 1.5 kg/m3
same,mass density,12448 kPa,1412.4 ± 1.5 kg/m3
same,mass density,12477 kPa,1412.4 ± 1.5 kg/m3
same,mass density,12510 kPa,1412.8 ± 1.5 kg/m3
same,mass density,12532 kPa,1412.9 ± 1.5 kg/m3
same,mass density,12565 kPa,1413.1 ± 1.5 kg/m3
same,mass density,12616 kPa,1413.4 ± 1.5 kg/m3
same,mass density,12650 kPa,1413.4 ± 1.5 kg/m3
same,mass density,12689 kPa,1413.8 ± 1.5 kg/m3
same,mass density,12723 kPa,1413.9 ± 1.5 kg/m3
same,mass density,12749 kPa,1414.1 ± 1.6 kg/m3
same,mass density,12786 kPa,1414.2 ± 1.6 kg/m3
same,mass density,12813 kPa,1414.5 ± 1.6 kg/m3
same,mass density,12852 kPa,1414.7 ± 1.6 kg/m3
same,mass density,12888 kPa,1414.9 ± 1.6 kg/m3
same,mass density,12924 kPa,1415.1 ± 1.6 kg/m3
same,mass density,12959 kPa,1415.3 ± 1.6 kg/m3
same,mass density,12986 kPa,1415.4 ± 1.6 kg/m3
